Changes are numbered by the printed parent chain.
Experiments:
[1] = target: T1, Aldo-keto reductase family 1 member C3 (Homo sapiens, UniProt P42330); test: Inhibition of AKR1C3-mediated androsterone metabolism in human A549 cells assessed as 5alpha-androstane-3alpha, 17beta-diol after 24 hrs by LC/MS analysis; format: cell-based
T1 sequence (P42330 whole entry): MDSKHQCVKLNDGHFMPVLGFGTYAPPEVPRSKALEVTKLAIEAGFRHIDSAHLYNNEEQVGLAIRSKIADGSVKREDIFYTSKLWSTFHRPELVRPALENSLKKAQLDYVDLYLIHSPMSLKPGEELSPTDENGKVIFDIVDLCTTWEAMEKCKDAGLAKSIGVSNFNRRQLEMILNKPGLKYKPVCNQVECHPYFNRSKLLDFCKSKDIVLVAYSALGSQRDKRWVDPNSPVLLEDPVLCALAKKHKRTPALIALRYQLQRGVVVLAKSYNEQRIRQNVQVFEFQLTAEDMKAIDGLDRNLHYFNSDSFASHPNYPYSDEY

[2] = target: T2, Aldo-keto reductase family 1 member C4 (Homo sapiens, UniProt P17516); test: Inhibition of AKR1C4 (unknown origin) assessed as dehydrogenase activity of enzyme by NADPH fluorescence assay
T2 sequence (P17516 whole entry): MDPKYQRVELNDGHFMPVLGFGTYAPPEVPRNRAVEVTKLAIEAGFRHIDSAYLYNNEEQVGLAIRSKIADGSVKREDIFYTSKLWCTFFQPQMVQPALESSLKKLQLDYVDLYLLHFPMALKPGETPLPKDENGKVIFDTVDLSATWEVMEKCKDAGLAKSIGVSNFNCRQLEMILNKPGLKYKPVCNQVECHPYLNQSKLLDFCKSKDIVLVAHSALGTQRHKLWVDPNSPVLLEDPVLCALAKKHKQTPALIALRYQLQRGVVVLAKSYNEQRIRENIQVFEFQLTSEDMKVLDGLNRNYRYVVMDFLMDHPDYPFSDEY

[3] = target: T1, Aldo-keto reductase family 1 member C3
Description: Inhibition of AKR1C3 (unknown origin) assessed as dehydrogenase activity of enzyme by NADPH fluorescence assay

[4] = target: T3, Aldo-keto reductase family 1 member C1 (Homo sapiens, UniProt Q04828); test: Inhibition of AKR1C1 (unknown origin) assessed as dehydrogenase activity of enzyme by NADPH fluorescence assay
T3 sequence (Q04828 whole entry): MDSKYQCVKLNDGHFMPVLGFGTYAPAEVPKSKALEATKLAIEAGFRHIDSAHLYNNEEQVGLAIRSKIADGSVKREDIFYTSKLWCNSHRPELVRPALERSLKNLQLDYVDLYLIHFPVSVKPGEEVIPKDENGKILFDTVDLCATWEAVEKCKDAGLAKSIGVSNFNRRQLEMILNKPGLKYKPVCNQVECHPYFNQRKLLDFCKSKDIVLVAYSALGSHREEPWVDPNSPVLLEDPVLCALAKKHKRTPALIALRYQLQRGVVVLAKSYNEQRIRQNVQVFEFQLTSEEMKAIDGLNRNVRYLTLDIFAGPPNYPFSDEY

[5] = target: T4, Aldo-keto reductase family 1 member C2 (Homo sapiens, UniProt P52895); test: Inhibition of AKR1C2 (unknown origin) assessed as dehydrogenase activity of enzyme by NADPH fluorescence assay
T4 sequence (P52895 whole entry): T3 sequence (Q04828 whole entry) with T38V, R47H, L54V, C87S, V151M, R170H, Q172L

With `O=C(O)/C=C/c1ccc(OC(=O)CCc2ccccc2)c(OCc2cccc(O)c2)c1` the IC50 [1] was 8000 nM, the IC50 [2] was 20000 nM and the IC50 [3] was 20 nM. For the same compound, the IC50 [4] was 81000 nM and the IC50 [5] was greater than 100000 nM.
`O=C(O)/C=C/c1ccc(OC(=O)CCc2c(F)cc(F)cc2F)c(OCc2cccc(F)c2)c1` gave an IC50 [3] of 580 nM.
`O=C(O)/C=C/c1ccc(OC(=O)CCc2ccccc2)c(OCc2ccccc2F)c1` was tested, and the IC50 [3] was 320 nM.
In the case of `Cc1ccc(COc2cc(/C=C/C(=O)O)ccc2OC(=O)CCc2cccc(F)c2)cc1`, the IC50 [3] is reported as 160 nM.
In the case of `O=C(O)/C=C/c1ccc(OC(=O)CCc2ccccc2)c(OCc2cc(F)cc(F)c2)c1`, the IC50 [3] is reported as 360 nM.
`C/C=C/COc1cc(/C=C/C(=O)O)ccc1OC(=O)CCc1ccccc1` gave an IC50 [3] of 1100 nM.
`O=C(O)/C=C/c1ccc(OC(=O)CCc2ccccc2)c(OCc2cccc(F)c2)c1` was tested, and the IC50 [3] was 110 nM.
Work on `COc1cccc(COc2cc(/C=C/C(=O)O)ccc2OC(=O)CCc2ccccc2)c1` yielded an IC50 [2] greater than 100000 nM, an IC50 [3] of 960 nM and an IC50 [4] greater than 100000 nM. It also gave an IC50 [5] greater than 100000 nM.
In the case of `O=C(O)/C=C/c1ccc(OC(=O)CCc2ccc(O)cc2)c(OCc2cccc(F)c2)c1`, the IC50 [3] is reported as 840 nM.
For `C=C(C)COc1cc(/C=C/C(=O)O)ccc1OC(=O)CCc1ccccc1`, the IC50 [3] was 850 nM.
`O=C(O)/C=C/c1ccc(OC(=O)CCc2ccccc2)c(OCc2ccc(Cl)cc2)c1` was tested, and the IC50 [3] was 890 nM.
Compound `Cc1ccc(COc2cc(/C=C/C(=O)O)ccc2OC(=O)CCc2ccccc2)cc1` has an IC50 [3] of 110 nM.
`CCCCOc1cc(/C=C/C(=O)O)ccc1OC(=O)CCc1ccccc1` gave an IC50 [3] of 420 nM.
Work on `CCCOc1cc(/C=C/C(=O)O)ccc1OC(=O)CCc1ccccc1` yielded an IC50 [3] of 2200 nM.
For `COc1cc(/C=C/C(=O)O)ccc1OC(=O)CCc1ccccc1`, the IC50 [3] was 4500 nM.
`Cc1ccc(COc2cc(/C=C/C(=O)O)ccc2OC(=O)CCc2c(F)cc(F)cc2F)cc1` gave an IC50 [3] of 540 nM.
For `O=C(O)/C=C/c1ccc(OC(=O)CCc2ccccc2)c(OCc2ccccc2)c1`, the IC50 [3] was 390 nM.
`CC(C)Oc1cc(/C=C/C(=O)O)ccc1OC(=O)CCc1ccccc1` gave an IC50 [3] of 3100 nM.
In the case of `Cc1ccc(COc2cc(/C=C/C(=O)O)ccc2OC(=O)CCc2cccc(O)c2)cc1`, the IC50 [3] is reported as 910 nM.
With `O=C(O)/C=C/c1ccc(OC(=O)CCc2cccc(F)c2)c(OCc2cccc(F)c2)c1` the IC50 [3] was 400 nM.
In the case of `O=C(O)/C=C/c1ccc(OC(=O)CCc2ccc(F)cc2)c(OCc2cccc(F)c2)c1`, the IC50 [3] is reported as 540 nM.
Work on `Cc1ccc(COc2cc(/C=C/C(=O)O)ccc2OC(=O)CCc2ccc(O)cc2)cc1` yielded an IC50 [3] of 770 nM.
Work on `Cc1ccc(COc2cc(/C=C/C(=O)O)ccc2OC(=O)CCc2ccc(F)cc2)cc1` yielded an IC50 [3] of 470 nM.
`CCOc1cc(/C=C/C(=O)O)ccc1OC(=O)CCc1ccccc1` was tested, and the IC50 [3] was 970 nM.
In the case of `O=C(O)/C=C/c1ccc(OC(=O)CCc2cccc(O)c2)c(OCc2cccc(F)c2)c1`, the IC50 [3] is reported as 800 nM.
`CC(C)COc1cc(/C=C/C(=O)O)ccc1OC(=O)CCc1ccccc1` gave an IC50 [3] of 560 nM.
Compound `O=C(O)/C=C/c1ccc(OC(=O)CCc2ccccc2)c(OCCc2ccccc2)c1` has an IC50 [3] of 570 nM.
`O=C(O)/C=C/c1ccc(OC(=O)CCc2ccccc2)c(OCc2ccc(F)cc2)c1` gave an IC50 [3] of 220 nM.
